From the NIST ThermoML archive (doi:10.1021/acs.jced.9b00306)
± gives the expanded uncertainty stated by the source.

Conditions: Liquid, Ebulliometric method (Recirculating still)

OCCCCCCO [1,6-hexanediol]
vapor or sublimation pressure (456.93 K): 10 ± 1 kPa | vapor or sublimation pressure (474.79 K): 20 ± 1 kPa | vapor or sublimation pressure (525.1 K): 99 ± 1 kPa

COC(=O)CCCCC(=O)OC [dimethyl 1,6-hexanedioate]
vapor or sublimation pressure (424.91 K): 7.79 ± 0.51 kPa | vapor or sublimation pressure (431.2 K): 10 ± 1 kPa | vapor or sublimation pressure (441.21 K): 14.56 ± 0.52 kPa | vapor or sublimation pressure (450.08 K): 20 ± 1 kPa | vapor or sublimation pressure (460.47 K): 28.55 ± 0.59 kPa | vapor or sublimation pressure (474.33 K): 44.63 ± 0.63 kPa | vapor or sublimation pressure (480.72 K): 54.37 ± 0.72 kPa | vapor or sublimation pressure (488.62 K): 68.77 ± 0.79 kPa | vapor or sublimation pressure (496.14 K): 85.45 ± 0.89 kPa | vapor or sublimation pressure (501 K): 99 ± 1 kPa | vapor or sublimation pressure (504.86 K): 108.77 ± 1 kPa | vapor or sublimation pressure (512 K): 131.95 ± 1.2 kPa | vapor or sublimation pressure (518.78 K): 157.68 ± 1.3 kPa | vapor or sublimation pressure (523.92 K): 179.21 ± 1.5 kPa | vapor or sublimation pressure (531.44 K): 216.3 ± 1.6 kPa

CO [methanol]
vapor or sublimation pressure (337.69 K): 101.3 ± 1.6 kPa

O [water]
vapor or sublimation pressure (373.15 K): 101.3 ± 1.6 kPa
